In ChEMBL document CHEMBL6092226, “Tilting the Scales toward EGFR Mutant Selectivity: Expanding the Scope of Bivalent "Type V" Kinase Inhibitors” (J Med Chem, 2024):
Active and inactive are the calls of the source. No cut-off for these calls is given here.

Tests used:
[1] = Drug metabolism in pooled male human liver microsomes assessed as thioether oxidation mediated metabolite formation at 150 uM measured after 2 hrs by LC-MS analysis; format: ADME, Microsome
[2] = molecular target: Epidermal growth factor receptor (Homo sapiens, UniProt P00533, L858R); test: Time-dependent irreversible inhibition of GST-tagged EGFR L858R mutant cytoplasmic domain (669 to 1210 residues) (unknown origin) assessed as apparent inactivation constant (Ki) incubated for 240 mins in presence of ATP by fluorescence based analysis; conditions: read-out: Ki(app)
cells = conditions: Homo sapiens, NCI-H1975, 72 h
[3] = molecular target: Tyrosine-protein kinase Blk (Homo sapiens) (UniProt P51451); test: Inhibition of BLK (unknown origin) at 1 uM by Eurofins DiscoverX KINOMEscan analysis
[4] = Metabolic stability in pooled male human liver microsomes at 150 uM measured after 2 hrs in presence of NADPH regenerating system by LC-MS analysis; format: ADME, Microsome
[5] = molecular target: Tyrosine-protein kinase BTK (Homo sapiens) (UniProt Q06187); test: Inhibition of BTK (unknown origin) at 1 uM by Eurofins DiscoverX KINOMEscan analysis
BaF3 = test: cells; conditions: Mus musculus, BaF3, 72 h
[6] = molecular target: T1, Cytoplasmic tyrosine-protein kinase BMX (Homo sapiens) (UniProt P51813); test: Inhibition of BMX (unknown origin) at 1 uM by Eurofins DiscoverX KINOMEscan analysis
T1 sequence (whole entry): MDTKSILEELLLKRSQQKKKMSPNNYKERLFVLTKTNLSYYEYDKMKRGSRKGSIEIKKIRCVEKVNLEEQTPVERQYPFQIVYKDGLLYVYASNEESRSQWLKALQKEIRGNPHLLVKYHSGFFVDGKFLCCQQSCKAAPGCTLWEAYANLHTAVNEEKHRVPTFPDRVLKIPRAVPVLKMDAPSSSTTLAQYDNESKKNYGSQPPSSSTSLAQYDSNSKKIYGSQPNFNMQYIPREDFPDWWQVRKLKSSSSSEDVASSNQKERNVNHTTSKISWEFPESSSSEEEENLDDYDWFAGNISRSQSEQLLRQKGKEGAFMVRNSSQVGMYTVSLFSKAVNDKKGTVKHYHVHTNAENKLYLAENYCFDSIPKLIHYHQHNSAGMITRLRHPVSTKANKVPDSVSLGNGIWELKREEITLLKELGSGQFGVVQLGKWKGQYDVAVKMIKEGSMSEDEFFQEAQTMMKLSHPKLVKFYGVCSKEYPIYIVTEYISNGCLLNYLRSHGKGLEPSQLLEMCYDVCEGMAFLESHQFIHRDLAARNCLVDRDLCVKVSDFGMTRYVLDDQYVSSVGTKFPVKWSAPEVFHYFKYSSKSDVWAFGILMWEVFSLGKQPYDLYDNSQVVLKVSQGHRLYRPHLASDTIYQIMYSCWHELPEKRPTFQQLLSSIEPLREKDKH

[7] = molecular target: T2, Tyrosine-protein kinase JAK3 (Homo sapiens) (UniProt P52333); test: Inhibition of JAK3 (unknown origin) at 1 uM by Eurofins DiscoverX KINOMEscan analysis
T2 sequence (whole entry): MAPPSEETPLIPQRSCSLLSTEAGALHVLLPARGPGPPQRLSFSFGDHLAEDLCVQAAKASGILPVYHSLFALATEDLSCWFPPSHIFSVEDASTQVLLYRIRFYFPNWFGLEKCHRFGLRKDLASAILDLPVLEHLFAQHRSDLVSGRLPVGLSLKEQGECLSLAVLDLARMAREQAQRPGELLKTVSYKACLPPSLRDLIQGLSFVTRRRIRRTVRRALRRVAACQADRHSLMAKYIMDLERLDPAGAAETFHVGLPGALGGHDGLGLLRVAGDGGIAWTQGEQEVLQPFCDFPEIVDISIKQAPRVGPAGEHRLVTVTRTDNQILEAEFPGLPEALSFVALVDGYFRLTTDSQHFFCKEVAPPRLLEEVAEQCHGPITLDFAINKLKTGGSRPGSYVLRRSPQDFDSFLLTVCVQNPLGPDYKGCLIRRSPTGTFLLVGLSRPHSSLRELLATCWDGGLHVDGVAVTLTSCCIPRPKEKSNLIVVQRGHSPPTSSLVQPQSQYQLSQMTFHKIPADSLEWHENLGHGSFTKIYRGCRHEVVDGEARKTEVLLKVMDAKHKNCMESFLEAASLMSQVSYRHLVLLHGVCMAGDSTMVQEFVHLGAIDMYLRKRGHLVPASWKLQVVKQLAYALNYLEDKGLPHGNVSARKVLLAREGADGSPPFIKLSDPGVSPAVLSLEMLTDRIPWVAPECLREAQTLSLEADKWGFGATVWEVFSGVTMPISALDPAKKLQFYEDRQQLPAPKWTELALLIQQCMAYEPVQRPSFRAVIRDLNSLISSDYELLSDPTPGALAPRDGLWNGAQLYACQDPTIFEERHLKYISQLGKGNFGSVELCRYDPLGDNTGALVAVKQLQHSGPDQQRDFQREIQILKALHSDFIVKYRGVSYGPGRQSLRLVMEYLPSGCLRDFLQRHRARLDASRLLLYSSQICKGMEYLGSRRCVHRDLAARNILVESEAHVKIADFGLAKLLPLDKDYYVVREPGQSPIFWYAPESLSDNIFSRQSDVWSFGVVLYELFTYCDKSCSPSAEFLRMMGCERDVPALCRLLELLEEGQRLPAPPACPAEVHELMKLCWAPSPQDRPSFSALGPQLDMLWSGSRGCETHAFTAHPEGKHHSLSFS

Tyrosine-protein kinase BTK (Homo sapiens), sequence (Q06187 whole entry): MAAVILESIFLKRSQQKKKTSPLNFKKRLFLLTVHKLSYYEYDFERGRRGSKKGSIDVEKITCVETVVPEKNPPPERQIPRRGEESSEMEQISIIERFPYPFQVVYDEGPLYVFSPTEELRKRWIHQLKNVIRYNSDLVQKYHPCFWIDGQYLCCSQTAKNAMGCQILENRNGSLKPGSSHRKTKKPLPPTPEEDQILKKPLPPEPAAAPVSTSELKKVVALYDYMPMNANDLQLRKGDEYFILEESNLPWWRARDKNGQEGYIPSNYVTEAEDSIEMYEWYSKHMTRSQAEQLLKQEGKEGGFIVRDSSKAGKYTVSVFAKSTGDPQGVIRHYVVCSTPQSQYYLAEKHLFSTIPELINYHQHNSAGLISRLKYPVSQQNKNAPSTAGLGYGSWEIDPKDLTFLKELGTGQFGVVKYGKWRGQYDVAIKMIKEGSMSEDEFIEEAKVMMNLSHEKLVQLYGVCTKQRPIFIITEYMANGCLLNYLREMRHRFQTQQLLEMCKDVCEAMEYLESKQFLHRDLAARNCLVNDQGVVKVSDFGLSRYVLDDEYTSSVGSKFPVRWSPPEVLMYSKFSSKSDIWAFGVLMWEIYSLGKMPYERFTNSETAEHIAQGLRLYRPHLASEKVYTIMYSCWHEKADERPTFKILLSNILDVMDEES
Epidermal growth factor receptor, sequence (P00533 25-1210 L858R limits assumed): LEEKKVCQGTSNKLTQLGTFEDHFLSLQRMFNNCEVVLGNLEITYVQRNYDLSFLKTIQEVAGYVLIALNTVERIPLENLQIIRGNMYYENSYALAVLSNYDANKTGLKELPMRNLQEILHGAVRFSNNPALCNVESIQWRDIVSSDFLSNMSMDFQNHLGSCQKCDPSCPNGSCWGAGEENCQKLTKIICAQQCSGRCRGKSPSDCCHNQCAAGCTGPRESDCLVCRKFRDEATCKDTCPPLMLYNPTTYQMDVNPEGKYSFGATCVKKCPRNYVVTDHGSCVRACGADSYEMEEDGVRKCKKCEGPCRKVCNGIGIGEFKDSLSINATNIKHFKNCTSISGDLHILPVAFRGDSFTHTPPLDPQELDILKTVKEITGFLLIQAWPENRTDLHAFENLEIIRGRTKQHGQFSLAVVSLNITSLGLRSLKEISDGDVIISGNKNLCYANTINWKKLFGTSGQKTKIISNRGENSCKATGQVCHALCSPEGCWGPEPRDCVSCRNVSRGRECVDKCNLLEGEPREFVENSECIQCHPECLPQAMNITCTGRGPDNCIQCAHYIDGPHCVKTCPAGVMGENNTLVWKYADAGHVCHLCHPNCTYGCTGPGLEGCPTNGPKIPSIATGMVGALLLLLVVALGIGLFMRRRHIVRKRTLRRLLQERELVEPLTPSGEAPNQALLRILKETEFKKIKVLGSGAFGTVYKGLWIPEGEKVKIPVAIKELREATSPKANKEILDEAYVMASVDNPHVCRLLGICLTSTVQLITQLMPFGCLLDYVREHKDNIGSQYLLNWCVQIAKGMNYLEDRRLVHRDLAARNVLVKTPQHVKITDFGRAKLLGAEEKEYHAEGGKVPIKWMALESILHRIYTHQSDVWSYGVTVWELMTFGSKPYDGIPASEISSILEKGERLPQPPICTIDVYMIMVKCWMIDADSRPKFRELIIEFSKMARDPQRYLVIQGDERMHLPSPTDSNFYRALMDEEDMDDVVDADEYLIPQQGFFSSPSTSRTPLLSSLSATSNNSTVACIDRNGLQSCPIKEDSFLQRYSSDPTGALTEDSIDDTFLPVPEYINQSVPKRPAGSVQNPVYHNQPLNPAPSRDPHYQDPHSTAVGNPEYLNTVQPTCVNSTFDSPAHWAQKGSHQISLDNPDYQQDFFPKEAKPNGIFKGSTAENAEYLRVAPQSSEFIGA
Tyrosine-protein kinase Blk (Homo sapiens), sequence (P51451 2-505 limits assumed): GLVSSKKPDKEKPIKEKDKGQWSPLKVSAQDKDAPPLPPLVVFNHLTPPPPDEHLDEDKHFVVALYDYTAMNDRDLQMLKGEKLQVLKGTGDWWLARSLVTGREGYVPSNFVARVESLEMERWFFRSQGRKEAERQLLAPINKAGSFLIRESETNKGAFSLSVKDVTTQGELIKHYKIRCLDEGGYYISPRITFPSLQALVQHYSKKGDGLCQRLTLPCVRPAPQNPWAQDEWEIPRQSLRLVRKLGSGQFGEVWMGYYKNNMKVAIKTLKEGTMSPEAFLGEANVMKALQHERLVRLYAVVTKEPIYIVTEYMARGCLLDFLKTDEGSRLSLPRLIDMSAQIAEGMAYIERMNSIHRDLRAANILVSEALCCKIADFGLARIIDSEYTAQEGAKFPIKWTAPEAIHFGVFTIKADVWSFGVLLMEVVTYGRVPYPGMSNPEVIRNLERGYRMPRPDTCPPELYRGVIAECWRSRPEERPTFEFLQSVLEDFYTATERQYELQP

Q: Which Drug metabolism [1] does the source give for C=CC(=O)Nc1ccc(OC)c(Nc2cc(-c3[nH]c(SC)nc3-c3cccc(NC(=O)c4cccc(O)c4CN4Cc5ccccc5C4=O)c3)ccn2)c1 here?
A: metabolite_detected

Q: What about the Ki [2] of the same compound?
A: 276 nM

Q: And the EC50 (cells)?
A: 330 nM

Q: What about the inhibition [3] of the same compound?
A: inactive

Q: And the Stability [4]?
A: Stable

Q: And the inhibition [5]?
A: inactive

Q: What about the EC50 (BaF3) of the same compound?
A: 430 nM

Q: What about the inhibition [6] of the same compound?
A: inactive

Q: And the inhibition [7]?
A: inactive
